Assay results published in publication PMC6956242 (Journal of Medicinal Chemistry, 2019).
Where two headings read alike, the source gives them in different places. The star is where a group is joined. Biotin = O=C1N[C@H]2[C@H](CS[C@H]2CCCCC(=O)*)N1

T1: His6-RORγt-LBD (Homo sapiens, UniProt P51449)
T1 sequence (P51449 265-518): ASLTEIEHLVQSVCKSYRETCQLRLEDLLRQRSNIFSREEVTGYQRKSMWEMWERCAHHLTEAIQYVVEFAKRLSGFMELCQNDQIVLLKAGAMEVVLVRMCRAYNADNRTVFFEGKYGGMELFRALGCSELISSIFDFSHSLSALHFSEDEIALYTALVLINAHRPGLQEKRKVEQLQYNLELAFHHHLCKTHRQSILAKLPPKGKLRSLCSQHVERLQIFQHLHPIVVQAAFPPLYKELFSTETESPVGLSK

T2: His6-RORγt-LBD (human retinoic acid receptor-related orphan receptor γt ligand binding domain, residues … (human, UniProt P51449-1 265-518))
T2 sequence (looked up): T1 sequence (P51449 265-518)

B1: N-terminal biotinylated SRC-1 box2 peptide (peptide)
peptide: Biotin-PSSHSSLTARHKILHRLLQEGSPSD-NH2
SMILES: CC[C@H](C)[C@H](NC(=O)[C@H](CCCCN)NC(=O)[C@H](Cc1c[nH]cn1)NC(=O)[C@H](CCCNC(=N)N)NC(=O)[C@H](C)NC(=O)[C@@H](NC(=O)[C@H](CC(C)C)NC(=O)[C@H](CO)NC(=O)[C@H](CO)NC(=O)[C@H](Cc1c[nH]cn1)NC(=O)[C@H](CO)NC(=O)[C@H](CO)NC(=O)[C@@H]1CCCN1C(=O)CCCC[C@@H]1SC[C@@H]2NC(=O)N[C@@H]21)[C@@H](C)O)C(=O)N[C@@H](CC(C)C)C(=O)N[C@@H](Cc1c[nH]cn1)C(=O)N[C@@H](CCCNC(=N)N)C(=O)N[C@@H](CC(C)C)C(=O)N[C@@H](CC(C)C)C(=O)N[C@@H](CCC(N)=O)C(=O)N[C@@H](CCC(=O)O)C(=O)NCC(=O)N[C@@H](CO)C(=O)N1CCC[C@H]1C(=O)N[C@@H](CO)C(=O)N[C@@H](CC(=O)O)C(N)=O

Assays:
[1] = target: T1, His6-RORγt-LBD
[2] = Chemical stability; format: physicochemical; conditions: 2 μM, aqueous buffer pH 7.4
[3] = PAMPA; format: in vitro ADME; conditions: 500 μM donor, 20 h
[4] = Microsomal stability phase II; format: in vitro ADME, human; conditions: 5 μM, UDPGA, 1 h, 37 °C
[5] = Plasma stability; format: in vitro ADME; conditions: 5 μM, 100% plasma, 1 h, 37 °C
[6] = Plasma protein binding; format: in vitro ADME; conditions: 5 μM, equilibrium dialysis 6 h, 37 °C
[7] = target: T1, His6-RORγt-LBD; format: biochemical; conditions: for improvement in potency compared to phenyl 19: vs 19, coactivator recruitment IC50
[8] = target: T2, His6-RORγt-LBD (human retinoic acid …); assay: AlphaScreen or HTRF

Molecule	chemical stability (% remain) [2] [% remain]	PAMPA (% flux) [3] [% flux]	microsomal stability phase 2 (% remain) [4] [% remain]	plasma stability (% remain) [5] [% remain]	plasma protein binding (% bound) [6] [% bound]	further results
C[C@H]1O[C@@H](O[C@H]2[C@@H](O)C[C@H](O[C@H]3[C@@H](O)C[C@H](O[C@H]4CC[C@@]5(C)[C@H](CC[C@@H]6[C@@H]5C[C@@H](O)[C@]5(C)[C@@H](C7=CC(=O)OC7)CC[C@]65O)C4)O[C@@H]3C)O[C@@H]2C)C[C@H](O)[C@@H]1O [compound 1, digoxin, reference compound]	–	–	–	–	–	Hill slope ([1]; 0 μM cholesterol): –0.76 ± 0.05; Hill slope ([1]; 0.25 μM cholesterol): –0.77 ± 0.03; Hill slope ([1]; 1.0 μM cholesterol): –1.01 ± 0.06
O=C(O)c1ccc(-c2nn(C(=O)c3c(Cl)cccc3C(F)(F)F)c3ccccc23)cc1 [compound 3, MRL-871, reference compound]	81.0	23.7	47.1	100	99.9	–
O=C(O)c1ccc(NC(=O)c2c(-c3c(Cl)cccc3C(F)(F)F)noc2-c2ccccc2)cc1 [compound 8, 4-{3-[2-Chloro-6-(trifluoromethyl)phenyl]-5-phenyl-1,2-oxazole-4-amido}benzoic Acid]	95.4	60.1	100	99.9	97.8	–
O=C(O)c1ccc(CNC(=O)c2c(-c3c(Cl)cccc3C(F)(F)F)noc2-c2ccccc2)cc1 [compound 18, 4-[({3-[2-Chloro-6-(trifluoromethyl)phenyl]-5-phenyl-1,2-oxazol-4-yl}formamido)methyl]benzoic Acid]	–	–	–	–	–	increase in potency compared to the initial hit ([7]; vs 8, TR-FRET IC50): 6 fold
O=C(O)c1ccc(NCc2c(-c3c(Cl)cccc3C(F)(F)F)noc2-c2ccco2)cc1 [compound 23, 4-[({3-[2-Chloro-6-(trifluoromethyl)phenyl]-5-(furan-2-yl)-1,2-oxazol-4-yl}methyl)amino]benzoic Acid]	100	50.4	92.8	86.5	100	improvement in potency compared to phenyl 19 [7]: 9 fold
O=C(O)c1ccc(NCc2c(-c3c(Cl)cccc3C(F)(F)F)noc2-c2cc[nH]c2)cc1 [compound 25, 4-[({3-[2-Chloro-6-(trifluoromethyl)phenyl]-5-(1H-pyrrol-3-yl)-1,2-oxazol-4-yl}methyl)amino]benzoic Acid]	95.3	33.6	69.8	85.9	99.9	improvement in potency compared to phenyl 19 [7]: 36 fold; Hill slope ([1]; 0 μM cholesterol): –0.77 ± 0.04; Hill slope ([1]; 0.25 μM cholesterol): –0.86 ± 0.03; Hill slope ([1]; 1.0 μM cholesterol): –1.01 ± 0.03
O=C(O)c1ccc(NCc2c(-c3c(Cl)cccc3C(F)(F)F)noc2-c2cccc3ccccc23)cc1 [compound 26, 4-[({3-[2-Chloro-6-(trifluoromethyl)phenyl]-5-(naphthalen-1-yl)-1,2-oxazol-4-yl}methyl)amino]benzoic Acid]	–	–	–	–	–	IC50 (TR-FRET coactivator recruitment) ([7]; RORγt LBD, SRC-1 box2 peptide, triplicate): no IC50 curve could be fitted
B1	–	–	–	–	–	binding result [8]: binds
